Results reported in the supplement of paper PMC4862054.

Legend:
Assay in all cases: normalised viability (% of control), CellTiter-Blue; higher = more viable cells (about 100 = DMSO control)
Conditions in all cases: incubation time: 72 h
MDA-MB-436 = test system: MDA-MB-436
In short: (§1)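 Vehicle (100) and a positive kill control (0) anchored the normalisation of each plate, and Z'-factor was used for quality control. Breast cancer cell lines in 20 µl suspension were incubated 72 h over compound in 5 µl medium in 384-well plates, followed by CellTiter-Blue at 560/590 nm. The value is normalised viability at a single listed concentration of the series.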

MFM-223 = test system: MFM-223
In short: as §1

SK-BR-3 = test system: SK-BR-3
In short: as §1

CAL-120 = test system: CAL-120
In short: as §1

CAL-85-1 = test system: CAL-85-1
In short: as §1

CAL-148 = test system: CAL-148
In short: as §1

HCC1937 = test system: HCC1937
In short: as §1

HCC1599 = test system: HCC1599
In short: as §1

CAL-51 = test system: CAL-51
In short: as §1

MDA-MB-453 = test system: MDA-MB-453
In short: as §1

HCC1143 = test system: HCC1143
In short: as §1

HDQ-P1 = test system: HDQ-P1
In short: as §1

DU-4475 = test system: DU-4475
In short: as §1

Hs578T = test system: Hs578T
In short: as §1

BT-474 = test system: BT-474
In short: as §1

Cn1c(=O)c(F)c(Nc2ccc(I)cc2F)c2c(=O)n(C[C@@H](O)CO)cnc21 [TAK-733]
normalised viability [%]
Conditions | 0.3 nM | 1 nM | 3 nM | 10 nM | 100 nM | 1000 nM
BT-474 | – | 123 | – | – | 121 | 131
CAL-51 | 107 | – | 88.7 | 90.1 | – | –
CAL-85-1 | 93.5 | – | 97.8 | 96.1 | – | –
CAL-120 | – | 92.4 | – | – | 74.7 | 56.3
CAL-148 | 95 | – | 99.5 | 99.5 | – | –
DU-4475 | 84.7 | – | 56.7 | 15.3 | – | –
HCC1143 | – | 94.1 | – | – | 68.6 | 56.4
HCC1599 | – | 94.8 | – | – | 74.6 | 70.5
HCC1937 | – | 121 | – | – | 104 | 74
HDQ-P1 | 113 | – | 118 | 91.6 | – | –
Hs578T | – | 108 | – | – | 88.3 | 77.5
MDA-MB-436 | – | 112 | – | – | 84.1 | 88.9
MDA-MB-453 | 114 | – | 104 | 115 | – | –
MFM-223 | – | 90.4 | – | – | 79.8 | 64.5
SK-BR-3 | – | 106 | – | – | 102 | 112

C#Cc1cccc(Nc2ncnc3cc(OC)c(OCCCCCCC(=O)NO)cc23)c1 [CUDC-101]
normalised viability [%]
Conditions | 3 nM | 10 nM | 30 nM | 100 nM | 1000 nM | 10000 nM
BT-474 | – | 108 | – | – | 28.2 | 3.84
CAL-51 | 117 | – | 108 | 105 | – | –
CAL-85-1 | 89 | – | 75.5 | 91 | – | –
CAL-120 | – | 82.3 | – | – | 38.3 | 9.22
CAL-148 | 90.4 | – | 89.8 | 85.2 | – | –
DU-4475 | 84 | – | 84.7 | 80.8 | – | –
HCC1143 | – | 78.3 | – | – | 32.8 | 11.6
HCC1599 | – | 78.8 | – | – | 28.6 | 16
HCC1937 | – | 71.7 | – | – | 45.4 | 14.6
HDQ-P1 | 98.9 | – | 93.3 | 71.5 | – | –
Hs578T | – | 91.3 | – | – | 38.2 | 5.55
MDA-MB-436 | – | 94.7 | – | – | 53.9 | 12
MDA-MB-453 | 99.7 | – | 67.3 | 65.3 | – | –
MFM-223 | – | 75.1 | – | – | 20.4 | 2.11
SK-BR-3 | – | 75.5 | – | – | 16.8 | 2.82
